# Measurements: article PMC4967898, “Peptides interfering with protein-protein interactions in the ethylene signaling pathway delay tomato fruit ripening” (Scientific Reports, 2016)
# “Also recorded” adds a separate entry of the source.
# How the values were obtained:
# [1] = Fluorescence of the dyes on their own (FRET control); details: 100 μM peptide; free dyes
# From the text: (§1) For this purpose, we made use of a fluorescence resonance energy transfer (FRET)-based in vitro assay, originally established for the respective Arabidopsis signaling proteins. Recombinant ethylene proteins LeETR1 and LeEIN2^462–1316 were labeled with fluorescent Alexa dyes[36] as described in the Methods section. LeETR1 was labeled with Alexa Fluor 488, while LeEIN2^462–1316 was labeled with Alexa Fluor 568. As the emission spectrum of the donor fluorophore partially overlaps with the excitation spectrum of the acceptor fluorophore, the dyes form a FRET pair and energy transfer from the donor to the acceptor fluorophore is possible when both probes get in close proximity. […] Formation of the complex is monitored by FRET from the donor molecule Alexa Fluor 488 to the acceptor molecule Alexa Fluor 568. Processes or molecules that prevent complex formation result in a reduced FRET from the donor to the acceptor, which is detected as reduced acceptor fluorescence at the emission maximum.
# (b) Calculation of IC50 value for NOP-1. Data were obtained in the FRET-assay in presence of increasing concentrations of NOP-1 peptide. […] (c) Determination of Kd value of NOP-1 binding to LeETR1 based on MST is illustrated. MST-signal is plotted against the NOP-1 concentration. […] All data (a,b,c) represent the mean +/− standard deviation.
# [2] = test system: green, immature tomato fruits; set-up: method as in PMID 25843012; details: cited from earlier work
# [3] = molecular target: T1, tomato EIN2-ETR1 complex (Solanum lycopersicum, UniProt Q41342); assay: FRET assay of LeEIN2-LeETR1 complex formation; type: biochemical
# T1 construct: made in house; host or cells: E. coli BL21(DE3) with pRARE (LeEIN2 fragment); E. coli (LeETR1)
# T1 sequence (Q41342 1-754): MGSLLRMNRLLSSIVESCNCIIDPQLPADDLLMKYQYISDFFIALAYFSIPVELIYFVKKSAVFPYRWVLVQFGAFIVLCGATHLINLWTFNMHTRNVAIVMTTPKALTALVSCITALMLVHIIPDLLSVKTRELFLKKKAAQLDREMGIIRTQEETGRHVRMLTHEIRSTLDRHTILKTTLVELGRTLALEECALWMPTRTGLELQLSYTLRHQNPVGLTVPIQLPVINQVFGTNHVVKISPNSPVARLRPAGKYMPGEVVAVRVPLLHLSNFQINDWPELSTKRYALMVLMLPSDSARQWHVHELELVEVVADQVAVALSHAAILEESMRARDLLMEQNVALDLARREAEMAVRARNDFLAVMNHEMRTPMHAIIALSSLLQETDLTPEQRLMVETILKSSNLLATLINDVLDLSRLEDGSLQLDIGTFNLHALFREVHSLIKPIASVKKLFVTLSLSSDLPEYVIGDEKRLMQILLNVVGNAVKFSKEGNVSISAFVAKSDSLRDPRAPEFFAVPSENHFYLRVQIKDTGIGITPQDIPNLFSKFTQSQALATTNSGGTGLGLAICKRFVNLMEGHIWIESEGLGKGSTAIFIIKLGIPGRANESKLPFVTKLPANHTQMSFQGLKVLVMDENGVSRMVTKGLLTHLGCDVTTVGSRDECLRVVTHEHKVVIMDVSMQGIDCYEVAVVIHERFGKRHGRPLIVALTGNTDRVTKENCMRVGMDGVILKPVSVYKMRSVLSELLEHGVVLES
# From the text: as §1
# Quantitative analysis of inhibitory peptides on ETR1-EIN2 complex by FRET
# For the FRET assay, recombinant LeETR1 was labeled with Alexa Fluor 488 succinimidyl-ester and LeEIN2^462–1316 was labeled with Alexa Fluor 568 succinimidyl-ester (both Life Technologies) in a buffer containing 50 mM potassium phosphate pH 8.0, 300 mM NaCl and 5% (v/v) glycerol following manufacturer’s protocol (MolecularProbes Protein Labeling Kit). Labeled proteins were transferred in FRET buffer containing 50 mM Tris-HCl pH 8.0, 300 mM NaCl, 0.05% (v/v) Tween 20, 5% (v/v) glycerol and mixed at a final concentration of 3.0 μM each. […] The FRET-based binding assay was carried out in 384-well microplates using an Infinite M200 Pro microplate reader (Tecan) at 455 nm excitation wavelength. Emission spectra were detected between 565 nm to 645 nm. FRET efficiencies were calculated from the maximal emission in the absence and in the presence of the supplied peptides and the half maximal inhibitor concentration IC50 was calculated as previously described.
smiles,measurement,setting,value
"CC(C)C[C@H](NC(=O)[C@H](CCCNC(=N)N)NC(=O)[C@H](CCCNC(=N)N)NC(=O)[C@H](CCCCN)NC(=O)[C@H](Cc1ccc(O)cc1)NC(=O)[C@H](CCCNC(=N)N)NC(=O)[C@H](CCCCN)NC(=O)[C@@H](N)CC(C)C)C(N)=O [NOP-1, LKRYKRRL-NH2]",effect on fluorescence of the dyes on their own,[1],"not affected by the peptides; also recorded: Neither of both peptides affected fluorescence of the free, unlabeled dyes"
same,"effect on fruit ripening in tomato, previous work",[2],efficiently reduced fruit ripening in tomato
same,FRET efficiency (of the value observed in the absence of NOP-1),"[3]; 100 μM NOP-1, LeETR1-Alexa Fluor 488 and LeEIN2^462–1316-Alexa Fluor 568, 3 μM each, 50 mM Tris-HCl pH 8.0, 300 mM NaCl, 0.05% Tween 20, 5% glycerol, excitation 455 nm, emission 565–645 nm",about 9%
same,effect on tomato EIN2-ETR1 complex formation,"[3]; FRET assay, 100 μM peptide where stated, LeETR1-Alexa Fluor 488 and LeEIN2-Alexa Fluor 568, 3 μM each",pronounced inhibition in FRET efficiency; also recorded: leads to a reduced FRET from LeETR1-Alexa Fluor 488 to LeEIN2-Alexa Fluor 568; also recorded: able to efficiently disrupt EIN2-ETR1 complex formation in tomato; also recorded: specific disruption of the tomato EIN2-ETR1 complex
